This test addresses IRAK4 (Homo sapiens (Human), UniProt Q9NWZ3). Put plainly: IRAK4 Kinase Assay (IMAP fluorescence polarization). Conditions: 0.5 nM GST tagged IRAK4, 100 μM ATP, 30 minutes at 25° C. In kind it is biochemical. The protocol:
The kinase activity of IRAK4 is determined by its ability to catalyze the phosphorylation of a fluorescent polypeptide substrate. The extent of phosphorylation is measured using the IMAP technology (Molecular Devices) where the phosphorylated fluorescent substrate binds to the large M(III)-based nanoparticles which reduces the rotational speed of the substrate and thus increases its fluorescent polarization (FP).
20 μL reaction mixture contains 10 mM TriHCl, pH 7.2, 0.5 nM GST tagged IRAK4 (SignalChem), 100 nM fluorescent peptide substrate (RP7030, Molecular Devices), 100 μM ATP, 1 mM DDT, 1 mM MgCl2, and 0.01% Tween 20. The reaction is initiated by the addition of ATP. After incubation for 30 minutes at 25° C., 60 μL of Progressive IMAP Reagent (Molecular Devices) is added to stop the reaction. Change in RP7030's FP is determined by a FP reader (Analyst HT, LJL BioSystems).
Background: Fluorescence polarisation rises when a labelled molecule tumbles more slowly, as on binding a larger partner.

The IC50 is the concentration that gives 50% inhibition. Read a low IC50 as higher potency.

IRAK4, sequence (Q9NWZ3 whole entry): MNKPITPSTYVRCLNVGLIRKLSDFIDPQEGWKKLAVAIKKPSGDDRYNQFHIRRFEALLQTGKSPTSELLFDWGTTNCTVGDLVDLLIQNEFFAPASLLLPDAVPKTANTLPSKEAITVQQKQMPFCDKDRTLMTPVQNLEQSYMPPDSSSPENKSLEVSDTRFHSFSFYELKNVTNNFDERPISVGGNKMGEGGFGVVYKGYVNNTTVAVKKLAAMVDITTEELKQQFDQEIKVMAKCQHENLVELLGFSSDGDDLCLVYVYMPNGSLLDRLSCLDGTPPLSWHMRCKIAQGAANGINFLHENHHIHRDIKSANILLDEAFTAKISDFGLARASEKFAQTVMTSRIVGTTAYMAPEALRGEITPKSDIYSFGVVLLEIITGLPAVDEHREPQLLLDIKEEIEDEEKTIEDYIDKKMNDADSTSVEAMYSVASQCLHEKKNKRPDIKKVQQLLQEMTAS

In turn, `OC1CCCC(c2ccc3ncnc(N[C@H]4CC[C@H](N5CCOCC5)CC4)c3c2)C1` (single isomer, unassigned) [Example 4-1, 3-(4-(((trans)-4-Morpholinocyclohexyl)amino)quinazolin-6-yl)cyclohexanol] had a 50% inhibitory concentration (IC50) of 39 nM.

The compound `OC1CCCC(c2ccc3ncnc(N[C@H]4CC[C@H](N5CCOCC5)CC4)c3c2)C1` (single isomer, unassigned) [Example 4-3, 3-(4-(((trans)-4-Morpholinocyclohexyl)amino)quinazolin-6-yl)cyclohexanol] had an IC50 of 11 nM.

`Cc1c(C2CC2)ccc2ncnc(N[C@H]3CC[C@H](N4CCOCC4)CC3)c12` [Example 1-1, 6-Cyclopropyl-5-methyl-N-(trans-4-morpholinocyclohexyl)quinazolin-4-amine] came in with an IC50 of 345 nM.

As to `CN(C)C1CCC(Nc2ncnc3ccc(C4CC4)cc23)CC1` (stereo not shown) [Example 1-2, N′-(6-cyclopropylquinazolin-4-yl)-N,N-dimethylcyclohexane-1,4-diamine], the IC50 was 12 nM.

`c1nc(N[C@H]2CC[C@H](N3CCOCC3)CC2)c2cc(C3CC3)ccc2n1` [Example 1-3, 6-cyclopropyl-N-(trans-4-morpholin-4-ylcyclohexyl)quinazolin-4-amine]: the IC50 was 5 nM.

As to `Fc1cc2ncnc(N[C@H]3CC[C@H](N4CCOCC4)CC3)c2cc1C1CC1` [Example 1-4, 6-cyclopropyl-7-fluoro-N-(trans-4-morpholin-4-ylcyclohexyl)quinazolin-4-amine], the IC50 is 12 nM.

For `CC1(c2ccc3ncnc(N[C@H]4CC[C@H](N5CCOCC5)CC4)c3c2)CC1` [Example 1-5, 6-(1-methylcyclopropyl)-N-(trans-4-morpholin-4-ylcyclohexyl)quinazolin-4-amine], half-maximal inhibition (IC50) was put at 52 nM.

Compound `c1nc(N[C@H]2CC[C@H](N3CCOCC3)CC2)c2cc(C3CCC3)ccc2n1` [Example 1-6, 6-cyclobutyl-N-(trans-4-morpholin-4-ylcyclohexyl)quinazolin-4-amine] yielded an IC50 of 3 nM.

The compound `c1nc(N[C@H]2CC[C@H](N3CCOCC3)CC2)c2cc(C3CCCC3)ccc2n1` [Example 1-7, 6-cyclopentyl-N-(trans-4-morpholin-4-ylcyclohexyl)quinazolin-4-amine] gave an IC50 of 5 nM.

Consider `c1nc(N[C@H]2CC[C@H](N3CCOCC3)CC2)c2cc(C3CCCCC3)ccc2n1` [Example 1-8, 6-cyclohexyl-N-(trans-4-morpholin-4-ylcyclohexyl)quinazolin-4-amine], for which the IC50 was 19 nM.

`c1nc(N[C@H]2CC[C@H](N3CCOCC3)CC2)c2cc(C3COC3)ccc2n1` [Example 2-1, N-((trans)-4-morpholinocyclohexyl)-6-(oxetan-3-yl)quinazolin-4-amine] showed an IC50 of 32 nM.

In the case of `c1nc(N[C@H]2CC[C@H](N3CCOCC3)CC2)c2cc(C3CCOC3)ccc2n1` (stereo partly drawn) [Example 2-2, N-(trans-4-morpholin-4-ylcyclohexyl)-6-(tetrahydrofuran-3-yl)quinazolin-4-amine], half-maximal inhibition (IC50) was put at 18 nM.

`c1nc(N[C@H]2CC[C@H](N3CCOCC3)CC2)c2cc(C3CCCO3)ccc2n1` (stereo partly drawn) [Example 3-1, N-((trans)-4-morpholinocyclohexyl)-6-(tetrahydrofuran-2-yl)quinazolin-4-amine] showed an IC50 of 170 nM.

For `N#CC1CCC(c2ccc3ncnc(N[C@H]4CC[C@H](N5CCOCC5)CC4)c3c2)CC1` (stereo partly drawn) [Example 3-2, 4-{4-[(trans-4-morpholin-4-ylcyclohexyl)amino]quinazolin-6-yl}cyclohexanecarbonitrile], it took 169 nM to reach half-maximal inhibition (IC50).

For `FC1(F)CCC(c2ccc3ncnc(N[C@H]4CC[C@H](N5CCOCC5)CC4)c3c2)CC1` [Example 3-3, 6-(4,4-difluorocyclohexyl)-N-(trans-4-morpholin-4-ylcyclohexyl)quinazolin-4-amine], the IC50 is 71 nM.

As for `c1nc(N[C@H]2CC[C@H](N3CCOCC3)CC2)c2cc(C3CCOCC3)ccc2n1` [Example 3-4, N-(trans-4-morpholin-4-ylcyclohexyl)-6-(tetrahydro-2H-pyran-4-yl)quinazolin-4-amine], the IC50 stood at 91 nM.

For `c1nc(N[C@H]2CC[C@H](N3CCOCC3)CC2)c2cc(C3CCCOC3)ccc2n1` (stereo partly drawn) [Example 3-5, N-(trans-4-morpholin-4-ylcyclohexyl)-6-(tetrahydro-2H-pyran-3-yl)quinazolin-4-amine], the IC50 came to 13 nM.

`O=C(O)C1CCC(c2ccc3ncnc(N[C@H]4CC[C@H](N5CCOCC5)CC4)c3c2)CC1` (stereo partly drawn) [Example 3-6, 4-{4-[(trans-4-morpholin-4-ylcyclohexyl)amino]quinazolin-6-yl}cyclohexanecarboxylic acid] yielded an IC50 of 98 nM.

`OC1CCCC(c2ccc3ncnc(N[C@H]4CC[C@H](N5CCOCC5)CC4)c3c2)C1` (stereo partly drawn) [Example 4-2, 3-(4-(((trans)-4-Morpholinocyclohexyl)amino)quinazolin-6-yl)cyclohexanol] yielded an IC50 of 55 nM.

The record behind these values is patent publication US9943516B2, “Inhibitors of IRAK4 activity” (MERCK SHARP & DOHME CORP., priority 2014, dated 2018).
